Test results as given in patent publication US9073851B2, “Compositions and methods for treating cancer” (Board of Regents, The University of Texas System, priority 2011, dated 2015).

What was measured:
[1] = test system: ER+ MCF-7 breast cancer cells; test: Cell proliferation on serotonin treatment (cell counting); type: cell-based, human
MDA-MB-231 cells [2] = test: Clonogenic survival assay; type: cell-based, human; details: paclitaxel 2 nM + CaMK-III siRNA
Procedure: (§1) To study the effect of CaMK-III growth of ER(−) and ER(+) breast cancer cells we performed a clonogenic assay, which is based on the ability of a single cell to grow into a colony (Franken N A, et al. Nat Protoc 2006: 1:2315-9), using MDA-MB-231 and MCF-7 cells, respectively. Cells were transfected with either CaMK-III or control siRNA (50 nM) […] over a period of two weeks.
(§2) This assay is an in vitro cell survival assay based on the ability of a single cell to grow into a colony. Briefly, cells (500 cells/well) were transfected with control siRNA or CaMK-III siRNA every week and grown for 2 to 3 weeks. Cells were stained with crystal violet and colonies were counted. Each experiment was repeated twice.
This assay is an in vitro cell survival assay based on the ability of a single cell to grow into a colony. Briefly, cells (500 cells/well) were transfected with different siRNA as described above and at 48 h post-transfection, cells were trypsinized and seeded into 6-well plates in the medium (500 cells/mL). Cells were transfected with control siRNA or CaMK-III siRNA every week and grown for 2 to 3 weeks. Cells were stained with crystal violet and colonies cells were counted. Each group was assayed in triplicate dishes, and each experiment was repeated twice.

MCF10A = test: MTS cell viability assay on normal breast epithelium; type: cell-based, human; details: at IC50 to IC90 doses in breast cancer cells (MCF7)
Excerpt: (§3) (aka proliferation assay, in this case MTS assay was used. MTS, MTT, XTT all similar assays often used as cell viability/toxicity assay). Cell viability in response to compounds such as 5NT and KD06 was studied with a tetrazolium/formazan based assay (MTS, Celltiter 96 aqueous one solution cell proliferation assay, Promega, WI) [Akar U, Chaves-Reyez A, Barria g Tari A, Sanguino A, Kondo Y, Kondo S, Arun B, Lopez-Berestein G, Ozpolat B: Silencing of Bcl-2 expression by small interfering RNA induces autophagic cell death in MCF-7 breast cancer cells. Autophagy 2008, 4:669-679, Ozpolat 2007 MCR]. Cells were seeded in 96 wells plates at a density of 1.5 to 3.0×10^3 cells per well in 100 μl of medium. Next day the medium was removed and cells were treated with the drug in 100 μl of medium for 72 hours. Plates were read at 490 nm wavelength in an Elisa plate reader (Kinetic Microplate Reader, Molecular Devices Corporation, Sunnyvale, Calif.).

breast cancer cells = test: Cell viability assay, breast cancer cell panel or cell line not stated; type: cell-based, human
Excerpt: as §3

5-HT1B/1D receptor = test: cAMP levels; type: cell-based
[3] = test system: 5-HT1B or 5-HT1D receptor; test: Effect on cell proliferation after siRNA knockdown of 5-HT1B or 5-HT1D receptor; type: cell-based
MCF7 cells = test: MTS cell viability/proliferation assay; type: cell-based, human
Excerpt: (§4) Viable and dead cells were detected by the trypan blue exclusion assay, where viable cells (non-stained) with intact membrane are able to exclude the dye, while dead cells take up the coloring blue agent from the media. To quantitatively assess the viability and/or proliferation of cells a MTS assay was used, which incorporates a redox indicator that changes color in response to metabolic activity. To study cell viability in response to CaMK-III siRNA or control siRNA and plasmid encoding CaMK-III or empty plasmid transfection cells were seeded in 96-well plates at a density of 3×10^3 cells per well in 100 μl of medium. Next day the medium was removed and cells were transfected with siRNA at different concentrations in 100 μl of medium plus transfection mix. Two days after transfection, the medium was removed and replaced by 180 μl of medium plus 20 μl of MTS and the cells were incubated under normal conditions until the color changed. Plates were read at dual wavelengths (570-595 nm) in an Elisa plate reader (Kinetic Microplate Reader, Molecular Devices Corporation, Sunnyvale, Calif.).
as §3

MCF7 breast cancer cells = test: Acridine orange staining of acidic vesicular organelles (autophagy), FACS; type: cell-based, human; details: for percentage of acridine orange positive cells: flow cytometry, control untreated cells 2%
Excerpt: To determine the role of serotonin 5-HT1B receptor in cell survival and the mechanism of growth inhibition induced by HT1B inhibitors we investigated cell death in breast cancer cells. When 5-HT1B was inhibited by either SB224289 or SB216641 we detected marked induction of autophagy (FIG. 28A) as detected by acridine orange staining, apoptosis by Annexin V and necrosis by propidium iodide (PI) staining and FACS analysis (FIG. 28B) in MCF7 breast cancer cells. Induction of acidic vacuoles by acridine orange staining was also observed in MDA-MB231 cells after SB224289 treatment for 72 hours (p<0.05) (FIG. 28C).
(§5) To detect and quantify acidic vesicular organelles, we stained cells with acridine orange as described previously.^31 The number of acridine orange-positive cells was determined by fluorescence-activated cell sorting (FACS) analysis. Cell morphology was examined using fluorescence microscopy (Nikon, Melville, N.Y.) with the cells remaining in their culture flasks.

ERK (p42/p44) and LC3-II = test: Western blot of p-ERK and LC3-II after 5-HT1B antagonists; type: cell-based, human; details: for phosphorylation of ERK (p42/p44): Western blot
Procedure: After treatment the cells were trypsinized and collected by centrifugation, and whole-cell lysates were obtained using a lysis buffer as described previously [Akar U, et al. Mol Cancer Res 2007: 5:241-249]. Total protein concentration was determined using a DC protein assay kit (Bio-Rad, Hercules, Calif.). Aliquots containing […] of total protein from each sample were subjected to sodium dodecyl sulfate-polyacrylamide gel electrophoresis (SDS-PAGE) with a 4-20% gradient and electrotransferred to nitrocellulose membranes. The membranes were blocked with 5% dry milk in Tris-buffered saline-Tween 20 (TBST), probed with primary antibodies anti EREK1/2 or p-ERK1/2 (Cell signaling), polyclonal LC3 antibody (Novus biologicals, Littleton, Colo.). The antibodies were diluted in TBST containing 2.5% dry milk and incubated at 4 C overnight. After the membranes were washed with TBST, they were incubated with horseradish peroxidase-conjugated anti-rabbit or anti-mouse secondary antibody (Amersham Life Science, Cleveland, Ohio). Mouse anti-actin and donkey anti-mouse secondary antibodies (Sigma Chemical, St. Louis, Mo.) were used to monitor-actin expression to ensure equal loading of proteins. Chemiluminescent detection was performed with Chemi-glow detection reagents (Alpha Innotech, San Leandro, Calif.). The blots were visualized with a FluorChem 8900 imager and quantified by a densitometer using the Alpha Imager application program (Alpha Innotech, San Leandro, Calif.).

MDA-MB-231 cells [4] = test: Annexin V staining and FACS analysis of apoptosis; type: cell-based, human
Procedure: To investigate whether inhibition of CaMK-III sensitizes drug (doxorubicin)-resistant MCF7/DoxR and MDA-MB-231 cells to chemotherapy, cells were treated with either CaMK-III (50 nM) or control siRNA (50 nM) for 24 hours and then with doxorubicin (ED50 dose) for 48 hours. The ED50 of doxorubicin was determined from a dose-escalation study in a proliferation assay. […] To determine the percent of cells undergoing apoptosis in response to doxorubicin alone and in combination with CaMK-III siRNA was detected by Annexin V staining and FACS analysis.
(§6) Apoptosis was assessed by an Annexin V assay, monitoring PARP and caspase 9 cleavage by Western blot. To provide a comparative assay of apoptosis by Annexin V labeling, tumor cells (1×10^6) treated with CaMK-III siRNA or control siRNA for 24 to 96 hours were harvested and washed with PBS. Cells were resuspended in binding buffer and stained with Annexin V and propidium iodide (PI) according to the manufacturer's protocol (BD Pharmingen Annexin V kit, San Diego, Calif.). Positive cells were detected and quantified by FACS analysis.

MDA-MB-231 cells [5] = test: MTS cell viability/proliferation assay; type: cell-based, human; details: MTS assay, MB-231
Excerpt: Viable and dead cells were detected by the trypan blue exclusion assay, the viability and/or proliferation of cells a MTS assay was used [Akar U, et al. Autophagy 2008: 4:669-79].
as §4, with “Two days after transfection, the medium was removed and replaced by 180 μl of medium plus 20 μl of MTS and the cells were incubated under normal conditions until the color changed.” left out
(aka proliferation assay, in this case MTS assay was used. MTS, MTT, XTT all similar assays often used as cell viability/toxicity assay). […] Plates were read at 490 nm wavelength in an Elisa plate reader (Kinetic Microplate Reader, Molecular Devices Corporation, Sunnyvale, Calif.).

MCF7/Dox resistant cells = test: MTS cell viability/proliferation assay; type: cell-based, human; details: MTS assay
Excerpt: as §4, §3

MCF-7 cells [6] = test: Clonogenic survival assay; type: cell-based, human; details: various concentrations over two weeks, vs untreated
Procedure: as §1, §2
To study the effect of 5-HT1B on the survival and colony formation of breast cancer cells a clonogenic survival assay was performed using various concentrations of […] over a period of two weeks. This assay is based on the ability of a single cell to grow into a colony [Franken N A, et al. Nat Protoc 2006: 1:2315-2319]. […] Cell death and detachment as well as reduced cell number was observed.
This assay is an in vitro cell survival assay based on the ability of a single cell to grow into a colony. […] Cells were stained with crystal violet and colonies cells were counted. […]

MCF7 and MDA-MB231 cells = test: Acridine orange autophagy assay with MEK inhibitor PD98059; type: cell-based, human
Procedure: as §5

MCF-7 cells [7] = test: Apoptosis / cell death in MCF-7 cells (Annexin V, FACS); type: cell-based, human; details: Annexin V, MCF cells
Procedure: as §6

[8] = test system: STAT3, Bcl-2 and PI3K/Akt pathways; test: Signaling pathways after SB-224289 in breast cancer cells; type: cell-based; details: preliminary studies
[9] = mouse, in vivo

## NCCc1c[nH]c2ccc(O)cc12 [Serotonin, 5-hydroxytryptamine]
[1]
  cell proliferation: induced proliferation

## CC(=O)O[C@H]1C(=O)[C@@]2(C)[C@H]([C@H](OC(=O)c3ccccc3)[C@]3(O)C[C@H](OC(=O)[C@H](O)[C@@H](NC(=O)c4ccccc4)c4ccccc4)C(C)=C1C3(C)C)[C@]1(OC(C)=O)CO[C@@H]1C[C@@H]2O [paclitaxel]
MDA-MB-231 cells [2]
  inhibition of colony formation by paclitaxel with CaMK-III siRNA: enhances efficacy

## CCCCCCCCCCCCOc1ccc2[nH]cc(CCN)c2c1.Cl [KD06]
MCF10A
  toxicity against normal breast epithelium: not toxic
Breast cancer cells
  potency relative to 5-NT: more potent than 5-NT
Breast cancer cells; incl. MDA-468, BT20, MDa-MB231, SKBR3, MDA-MB435, T47D, ZR75.1
  cell survival (O.D.) in a large panel of breast cancer cells: effective against almost all breast cancer cell lines
5-HT1B/1D receptor
  cAMP levels: decrease cAMP levels
[3]
  effect of compound after knockdown of 5-HT1B or 5-HT1D receptor: blunts the effect

## COc1ccc(NC(=O)c2ccc(-c3ccc(-c4noc(C)n4)cc3C)cc2)cc1OCCN(C)C [SB216641]
MCF7 cells; antagonist alone
  cell viability: 31%
MCF7 cells; with 3-MA, p<0.05
  cell viability: 71%
MCF7 breast cancer cells
  percentage of acridine orange positive cells: 17%
ERK (p42/p44) and LC3-II
  phosphorylation of ERK (p42/p44): induced phosphorylation of ERK (p42/p44)

## COc1cccc2c1C(=O)c1c(O)c3c(c(O)c1C2=O)C[C@@](O)(C(=O)CO)C[C@@H]3O[C@H]1C[C@H](N)[C@H](O)[C@H](C)O1 [doxorubicin]
MDA-MB-231 cells [4]; doxorubicin alone, 48 h
  apoptosis induced by doxorubicin (Annexin V positive cells): 5%
MDA-MB-231 cells [4]; doxorubicin with CaMK-III siRNA
  apoptosis induced by doxorubicin (Annexin V positive cells): 55%

## Cc1nc(-c2ccc(-c3ccc(C(=O)N4CCc5cc6c(cc54)C4(CCN(C)CC4)CO6)cc3)c(C)c2)no1 [SB224289]
MDA-MB-231 cells [5]
  inhibition of cell proliferation: dose-dependent inhibition
MCF7 cells; Homo sapiens, MCF7, MCF cells
  EC50: 4.4 µM
MCF7 cells; MTS assay
  inhibition of cell proliferation: dose-dependent inhibition
MCF7 cells; antagonist alone
  cell viability: 42%
MCF7 cells; with 3-MA, p<0.05
  cell viability: 61%
MCF7/Dox resistant cells
  inhibition of cell proliferation: dose-dependent inhibition
MCF-7 cells [6]
  colony formation: grew more slowly and produced fewer colonies
MCF7 breast cancer cells; antagonist alone
  incidence of autophagy: 22.4%
MCF7 breast cancer cells
  percentage of acridine orange positive cells: 23%
MCF7 breast cancer cells; with 3-MA
  incidence of autophagy: 12%
MCF7 and MDA-MB231 cells; antagonist alone
  percent positive cells with autophagy: 29.2%
MCF7 and MDA-MB231 cells; with ERK inhibitor (MEK inhibitor PD98059)
  percent positive cells with autophagy: 18%
MCF-7 cells [7]
  induction of apoptosis: induced apoptosis in a dose dependent manner
ERK (p42/p44) and LC3-II; MCF7 and MCF7/Dox-R cells
  LC3-II, marker of autophagy: induction of LC3-II
ERK (p42/p44) and LC3-II
  phosphorylation of ERK (p42/p44): induced phosphorylation of ERK (p42/p44)
[8]
  STAT3, Bcl-2 and PI3K/Akt pathways: inhibits the STAT3 and Bcl-2 pathways, as well as the PI3K/Akt pathway
[9]
  toxicity in mice: quite toxic in mice
